Reference: ChEMBL document CHEMBL1129106, “The development of non-steroidal dual inhibitors of both human 5-reductase isozymes” (Bioorg Med Chem Lett, 1996)

Assays:
[1] = target: T1, 3-oxo-5-alpha-steroid 4-dehydrogenase 1 (Homo sapiens) (UniProt P18405); assay: Compound was tested in vitro for its inhibitory activity against human 5Alpha-R1 expressed as potency.
T1 sequence (whole entry): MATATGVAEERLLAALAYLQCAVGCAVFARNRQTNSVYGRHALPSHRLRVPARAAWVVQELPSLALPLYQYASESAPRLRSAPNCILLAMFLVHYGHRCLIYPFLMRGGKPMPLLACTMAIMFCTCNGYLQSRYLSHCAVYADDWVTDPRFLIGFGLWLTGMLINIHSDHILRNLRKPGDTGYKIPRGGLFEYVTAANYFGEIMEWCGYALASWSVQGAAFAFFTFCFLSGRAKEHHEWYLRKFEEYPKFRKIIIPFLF

[2] = target: T2, 3-oxo-5-alpha-steroid 4-dehydrogenase 2 (Homo sapiens) (UniProt P31213); assay: Compound was tested in vitro for its inhibitory activity against human 5Alpha-R2 expressed as potency.
T2 sequence (whole entry): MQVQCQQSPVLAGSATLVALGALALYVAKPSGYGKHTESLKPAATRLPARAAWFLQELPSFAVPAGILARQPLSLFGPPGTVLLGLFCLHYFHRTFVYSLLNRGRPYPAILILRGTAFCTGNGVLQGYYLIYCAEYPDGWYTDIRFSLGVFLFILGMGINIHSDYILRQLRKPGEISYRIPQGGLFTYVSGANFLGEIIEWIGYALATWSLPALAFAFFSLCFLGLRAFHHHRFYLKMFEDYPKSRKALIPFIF

[3] = target: Steroid 5-alpha-reductase (Rattus norvegicus) (UniProt P24008+P31214); assay: Compound was tested in vitro for its inhibitory activity against rat 5Alpha-R expressed as potency; type: protein assay
Sequence of Steroid 5-alpha-reductase (Rattus norvegicus) (P24008 whole entry, looked up): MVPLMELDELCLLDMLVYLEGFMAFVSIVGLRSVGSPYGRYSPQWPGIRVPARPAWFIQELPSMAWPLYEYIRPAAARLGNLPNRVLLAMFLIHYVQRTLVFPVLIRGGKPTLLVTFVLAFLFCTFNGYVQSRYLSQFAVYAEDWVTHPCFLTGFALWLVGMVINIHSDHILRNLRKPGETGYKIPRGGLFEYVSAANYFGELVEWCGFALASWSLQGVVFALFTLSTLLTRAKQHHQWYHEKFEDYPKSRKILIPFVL
Sequence of Steroid 5-alpha-reductase (Rattus norvegicus) (P31214 whole entry, looked up): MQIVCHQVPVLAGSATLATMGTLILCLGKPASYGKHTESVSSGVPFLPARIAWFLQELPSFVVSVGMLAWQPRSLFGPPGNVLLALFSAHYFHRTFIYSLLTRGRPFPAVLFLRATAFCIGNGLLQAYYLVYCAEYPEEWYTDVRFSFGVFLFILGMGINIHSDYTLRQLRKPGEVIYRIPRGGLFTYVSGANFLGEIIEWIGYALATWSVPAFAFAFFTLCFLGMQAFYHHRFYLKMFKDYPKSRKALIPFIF

[4] = Volume of distribution in rat.; type: ADME, organism-based; conditions: in vivo
[5] = Plasma clearance in dog; type: ADME, organism-based, Canis lupus familiaris
[6] = Oral bioavailability in dog; type: ADME, organism-based, Canis lupus familiaris; conditions: in vivo
[7] = Half-life in rat plasma; type: ADME, organism-based
[8] = Volume of distribution in dog; type: ADME, organism-based, Canis lupus familiaris; conditions: in vivo
[9] = Oral bioavailability in rat; type: ADME, organism-based; conditions: in vivo
[10] = Plasma clearance in rat.; type: ADME, organism-based

In the case of `CC(C)Cc1ccc([C@]2(C)Oc3ccc(C(=O)c4cn(CCCC(=O)O)c5ccccc45)cc3O2)cc1`, the Potency [1] is reported as 25 nM, the Potency [2] is reported as 23 nM and the Potency [3] is reported as 9 nM.

`CC(C)Cc1ccc([C@@H](C)Oc2ccc(C(=O)c3cn(CCCC(=O)O)c4ccccc34)cc2)cc1` showed a Potency [1] of 574 nM, a Potency [2] of 69 nM and a Potency [3] of 30 nM.

Compound `Cc1c(O[C@@H](C)c2ccc(CC(C)C)cc2)ccc(C(=O)Nc2ccccc2OCCCC(=O)O)c1C` has a Potency [2] of 256 nM.

Work on `CC(C)Cc1ccc(C(C)Oc2ccc(C(=O)N3CC(CCCC(=O)O)c4ccccc43)cc2)cc1` (stereo unspecified) yielded a Potency [1] of 113 nM, a Potency [2] of 481 nM and a Potency [3] of 24 nM.

For `CC(C)Cc1ccc([C@H](C)Oc2ccc(C(=O)c3cn(CCCC(=O)O)c4ccccc34)cc2)cc1`, the Vd [4] was 3.6 L/kg, the Potency [1] was 40 nM and the clearance [5] was 2.4 mL/min/kg. For the same compound, the bioavailability [6] was 86%, the half-life [7] was 3.7 h and the Vd [8] was 0.9 L/kg. It also gave a Potency [2] of 4 nM, a Potency [3] of 1 nM and a bioavailability [9] of 56%. The clearance [10] was 11 mL/min/kg.

`CCCc1ccc(OC(C)c2ccc(C(=O)c3cn(CCCC(=O)O)c4ccccc34)cc2)cc1` (stereo unspecified) gave a Potency [1] of 8 nM, a Potency [2] of 10 nM and a Potency [3] of 5 nM.

Compound `O=C(O)CCCn1cc(C(=O)c2ccc3c(c2)OC(c2ccccc2)(c2ccccc2)O3)c2ccccc21` has a Potency [1] of 23 nM, a Potency [2] of 34 nM and a Potency [3] of 3 nM.
